The values below come from patent publication US8980933B2, “Combretastatin analogs for use in the treatment of cancer” (Universitat Bayreuth, priority 2010, dated 2015).

The test system of data set [1] is vascular system of a fertilized chicken embryo. In words: CAM assay. The format is in vivo. The conditions noted are these: 10 nmol applied on the embryonal vessels; up to three days. As to the method: Compounds of the present invention were tested for anti-angiogenic and vasculature disrupting properties using the CAM assay. In this test the vascular system of a fertilized chicken embryo is used as a model (Wilting et al., Anat. Embryol. 1991, 183, 259-271).
Fertilized chicken eggs received from a nearby farm directly after laying have been incubated at a temperature of 36-38° C. and a relative humidity of 60%. During the growth the eggs have been held in an inclined position and turned from time to time in order to avoid an adherence to the shell. After four days each embryo was transferred into a cavity created by fixing a thin plastic foil on top of a cup and covered. This was done by opening the shell at the flat end where the air sac resides and letting the content slip out. There the growth continued for another 2-4 days until the first blood vessels became visible. Then 10 nmol of the substance to be tested (in 10 μL PBS with 1% DMF) have been applied directly on the embryonal vessels. As a reference PBS was used. Finally incubation continued for up to another three days (Dugan et al., Anat. Rec. 1991, 229, 125-128; Fisher, Tested studies for laboratory teaching 1993, 5, 105-115).

Data set [2] deals with HT-29 colon carcinoma cells. Put plainly: MTT cell growth inhibition, HT-29. The format is cell-based, human. The following applies: for IC50 concentration: combretastatin A-4 resistant HT-29 cells; for cytotoxicity (comparison): multi-drug resistant HT-29 colon cancer cells. The protocol: The effects of the compounds 5b, 6b, 8a, and 8e according to the present invention and of the reference compound 25f (Wang et al., J. Med. Chem. 2002, 45, 1697-1711) on cells of the following human tumor cell lines were evaluated: 518A2 melanoma, HL-60 leukemia, HT-29 colon carcinoma, KB-V1/Vbl cervical carcinoma, and MCF-7/Topo breast carcinoma.
The HL-60 cells were obtained from the German Collection of Biological Material (DSMZ), Braunschweig, Germany; the human 518A2 melanoma cells as well as the testicular germ cell tumor cell lines H12.1 and 1411HP were cultured in the department of oncology and hematology, Medical Faculty of the Martin-Luther University, Halle, Germany; the KBV1/Vbl and the MCF-7/Topo cells were obtained from the Institute of Pharmacy of the University Regensburg, Germany; and the colon HT-29 cells from the University Hospital Erlangen, Germany. The HL-60 and the HT-29 cells were grown in RPMI-1640 medium supplemented with 10% fetal calf serum (FCS), 100 IU/mL penicillin G, 100 μg/mL streptomycin sulfate, 0.25 μg/mL amphotericin B and 250 μg/mL gentamycine (all from Gibco, Egenstein, Germany). The 518A2 and the KB-V1/Vbl cells were cultured in Dulbecco's Modified Eagle Medium (D-MEM, Gibco) containing 10% FCS, 100 IU/mL penicillin G, 100 μg/mL streptomycin sulfate, 0.25 μg/mL amphotericin B and 250 μg/mL gentamycine. The MCF-7/Topo cells were grown in E-MEM medium (Sigma) supplemented with 2.2 g/L NaHCO3, 110 mg/L sodium pyruvate and 5% FCS. The cells were maintained in a moisture-saturated atmosphere (5% CO2) at 37° C. in 75-mL culture flasks (Nunc, Wiesbaden, Germany). They were serially passaged following trypsinisation by 0.05% trypsin/0.02% EDTA (PAA laboratories, Clbe, Germany). Mycoplasma contamination was routinely monitored, and only mycoplasma-free cultures were used.
MTT [3-(4,5-dimethylthiazol-2-yl)-2,5-diphenyltetrazolium bromide](ABCR) was used to identify viable cells which reduce it to a violet formazan (Mosmann, J. Immunol. Methods 1983, 65, 55-63). HL-60 leukemia cells (5×10^5/mL), and cells (5×10^4/mL) of 518A2 melanoma, HT-29 colon, KB-V1/Vbl cervix and MCF-7/Topo breast carcinoma were seeded out in 96-well tissue culture plates and cultured for 24 h. Incubation (5% CO2, 95% humidity, 37° C.) of the cells following treatment with the test compounds was continued for 24, 48 or 72 h. Blank and solvent controls were treated identically. MTT in phosphate buffered saline (5 mg/mL) was added to a final concentration of 0.05% (HL-60, 518A2) or 0.1% (HT-29, KB-V1/Vbl, MCF-7/Topo). After 2 h the formazan precipitate was dissolved in 10% sodium dodecylsulfate in DMSO containing 0.6% acetic acid in the case of the HL-60 cells. For the adherent 518A2, KB-V1/Vbl, MCF-7/Topo and HT-29 cells the microplates were swiftly turned to discard the medium before adding the solvent mixture. The microplates were gently shaken in the dark for 30 min and absorbance at 570 nm and 630 nm (background) was measured with an ELISA plate reader. All experiments were carried out in quadruplicate; the percentage of viable cells was calculated as the mean±SD with controls set to 100%.

The test system of the next data set is 518A2 cells. Put plainly: Mitochondrial membrane assay (JC-1), 518A2. The conditions noted are these: 5 μM, red/green fluorescence ratio relative to untreated controls (100%), mean ± SD. Type of data set: cell-based, human.
The subject of data set [3] is H12.1 germ cell tumor, 1411HP germ cell tumor, A2780 ovarian carcinoma, HT29 colon carcinoma, DLD1 colon carcinoma, HCT8 colon carcinoma. In words: SRB-cytotoxicity assay in a panel of tumor cell lines. Type of data set: cell-based, human. The following applies: H12.1, 1411HP. The protocol:
The cytotoxic activity of 5b was established by standard colorimetric tests (SRB- and MTT-assays) against various tumor cell lines of different entities. For the SRB cytotoxicity assay, dose-response curves of the testicular germ cell tumor cell lines exposed to drug concentrations of 0.001-10 μM were established using the sulforhodamine-B (SRB) microcuiture colorimetric assay (Papazisis et al. Optimization of the sulforhodamine B colorimetric assay. J. Immunol. Methods 1997, 208, 151-158) and performed as described in: Müller et al. Failure of activation of caspase-9 induces a higher threshold for apoptosis and cisplatin resistance in testicular cancer. Cancer Res. 2003, 63, 513-521. Briefly, cells were seeded into 96-well plates on day 0, at cell densities previously determined to ensure exponential cell growth during the period of the experiment. On day 1, cells were treated with the drugs dissolved in medium to give the appropriate concentrations for indicated times and the percentage of surviving cells relative to untreated controls was determined on day 5.
The compounds 5b, 6b, 5f and 6f as well as the reference compound 25f (Wang et al.) were furthermore subjected to an SRB-cytotoxicity assay in a panel of tumor cell lines (H12.1 germ cell tumor, 1411HP germ cell tumor, A2780 ovarian carcinoma, HT29 colon carcinoma, DLD1 colon carcinoma, HCT8 colon carcinoma).

SMILES strings stand for the structures.

As for `COc1ccc(-c2c(-c3cc(Cl)c(OC)c(OC)c3)ncn2C)cc1N` [compound 5b, 1-methyl-5-(3-amino-4-methoxyphenyl)-4-(3-chloro-4,5-dimethoxyphenyl)-imidazole], in data set [1], the “effect on embryonal blood vessels” value is “dramatic vessel shrinkage within 24 h after treatment and to a complete degradation of the vascular system within three days”. For the same compound, in data set [2], the IC50 concentration entry was “single-digit nanomolar range” and the “cytotoxicity (comparison)” value is on record as “able to overcome the drug resistance in these cancer cells in vitro”. In the data set on 518A2 cells, the “Intact mitochondria [%] in 518A2 cells after 72 h” value turned out to be 80 ± 9%. In addition, the “in vitro cytotoxicity compared to 25f” value in data set [3] is listed as “superior activity as compared to compound 25f”.

With `COc1ccc(-c2c(-c3cc(Br)c(OC)c(OC)c3)ncn2C)cc1N` [compound 6b, 1-methyl-5-(3-amino-4-methoxyphenyl)-4-(3-bromo-4,5-dimethoxyphenyl)-imidazole], the “effect on embryonal blood vessels” value in data set [1] is “leaving regular vasculature in chicken embryos (CAM assay) alone”. Further, in data set [2], the IC50 concentration result was “single-digit nanomolar range” and the “cytotoxicity (comparison)” value is “able to overcome the drug resistance in these cancer cells in vitro”. Besides, the “Intact mitochondria [%] in 518A2 cells after 72 h” value in the data set with 518A2 cells was found to be 80 ± 9%. The “in vitro cytotoxicity compared to 25f” value in data set [3] is “superior activity as compared to compound 25f”.
